# Measured values published in patent publication US20110092544A1, “FUNGICIDAL PYRIDINES” (E.I. DU PONT DE nemours and company, priority 2008, published 2011).
# Tests used:
# Format in all cases: in vivo
# [1] = tested on: Erysiphe graminis f. sp. tritici; test: Test A: wheat powdery mildew, preventive spray on wheat seedlings, visual disease rating
# Excerpt: (§1) General protocol for preparing test suspensions for Tests A-H: The test compounds were first dissolved in acetone in an amount equal to 3% of the final volume and then suspended at the desired concentration (in ppm) in acetone and purified water (50/50 mix) containing 250 ppm of the surfactant Trem® 014 (polyhydric alcohol esters). The resulting test suspensions were then used in tests A-H. Spraying a 200 ppm test suspension to the point of run-off on the test plants was the equivalent of a rate of 500 g/ha.
# The test suspension was sprayed to the point of run-off on wheat seedlings. The following day the seedlings were inoculated with a spore dust of Erysiphe graminis f. sp. tritici (the causal agent of wheat powdery mildew) and incubated in a growth chamber at 20° C. for 8 days, after which time disease ratings were visually made.
# (§2) Results for Tests A-H are given in Table A. In the table, a rating of 100 indicates 100% disease control and a rating of 0 indicates no disease control (relative to the controls). A dash (-) indicates no test results. All results are for compounds tested at 200 ppm except where the compound number is followed by “*” which indicates the compound was tested at 40 ppm.
# [2] = tested on: Puccinia recondite f. sp. tritici; test: Test B: wheat leaf rust, preventive spray on wheat seedlings, visual disease rating
# Excerpt: as §1
# (§3) The test suspension was sprayed to the point of run-off on wheat seedlings. The following day the seedlings were inoculated with a spore suspension of Puccinia recondite f. sp. tritici (the causal agent of wheat leaf rust) and incubated in a saturated atmosphere at 20° C. for 24 h, and then moved to a growth chamber at 20° C. for 7 days, after which time disease ratings were visually made.
# as §2
# Septoria tritici = test: Test C: wheat leaf blotch, preventive spray on wheat seedlings, visual disease rating
# Excerpt: as §1
# as §3, with “Septoria” for “Puccinia recondite f. sp.”, “blotch)” for “rust)”, “48” for “24”, “and” for “and then”, “19 additional” for “7”
# as §2
# Septoria nodorum = test: Test D: wheat glume blotch, preventive spray on wheat seedlings, visual disease rating
# Excerpt: as §1
# as §3, with “Septoria nodorum” for “Puccinia recondite f. sp. tritici”, “glume blotch)” for “leaf rust)”, “48” for “24”
# as §2
# Alternaria solani = test: Test E: tomato early blight, preventive spray on tomato seedlings, visual disease rating
# Excerpt: as §1
# (§4) The test suspension was sprayed to the point of run-off on tomato seedlings. The following day the seedlings were inoculated with a spore suspension of Alternaria solani (the causal agent of tomato early blight) and incubated in a saturated atmosphere at 27° C. for 48 h, and then moved to a growth chamber at 20° C. for 5 days, after which time disease ratings were visually made.
# as §2
# Botrytis cinerea = test: Test F: tomato botrytis, preventive spray on tomato seedlings, visual disease rating
# Excerpt: as §1
# as §4, with “Botrytis cinerea” for “Alternaria solani”, “botrytis)” for “early blight)”, “in” for “in a”, “20°” for “27°”, “24°” for “20°”, “3 additional” for “5”
# as §2
# [3] = 40 ppm (compound number followed by *)
# [4] = 200 ppm, 100 = 100% disease control, 0 = no control
Compound,"Test A rating (% disease control) [1, 3] [%]","Test B rating (% disease control) [2, 3] [%]",Test C rating (% disease control) (Septoria tritici; [3]) [%],Test D rating (% disease control) (Septoria nodorum; [3]) [%],Test E rating (% disease control) (Alternaria solani; [3]) [%],Test F rating (% disease control) (Botrytis cinerea; [3]) [%],also measured
COc1cc(OC)cc(-c2c(-c3ccc(F)cc3)cnc(C)c2-c2c(F)cc(F)cc2F)c1 [Compound 93],96,91,93,0,21,98,
COc1cc(OC)c(Cl)c(-c2c(C(C)=O)cnc(C)c2-c2c(F)cc(F)cc2F)c1 [Compound 118],100,100,96,0,99,100,
COc1cc(OC)cc(-c2c(-c3c(F)cccc3F)cnc(C#N)c2-c2c(F)cccc2F)c1 [Compound 81],,,,,,,"Test A rating (% disease control) [1, 4]: 78%; Test B rating (% disease control) [2, 4]: 96%; Test C rating (% disease control) (Septoria tritici; [4]): 93%; Test D rating (% disease control) (Septoria nodorum; [4]): 0%; Test E rating (% disease control) (Alternaria solani; [4]): 98%; Test F rating (% disease control) (Botrytis cinerea; [4]): 46%"
COc1cc(OC)cc(-c2c(-c3ccccc3)cnc(C)c2-c2c(F)cccc2F)c1 [Compound 87],98,96,95,0,0,72,
COc1cc(OC)cc(-c2c(C3CCOCC3)cnc(C)c2-c2c(F)cc(F)cc2F)c1 [Compound 79],97,100,93,95,100,91,
COc1cc(OC)cc(-c2c(C3CCSCC3)cnc(C)c2-c2ccc(F)cc2)c1 [Compound 84],96,98,96,0,0,49,
COc1cc(OC)cc(-c2c(-c3cccs3)cnc(C)c2-c2c(F)cc(F)cc2F)c1 [Compound 132],90,99,99,97,93,99,
COc1cc(OC)cc(-c2c(C(C)C#N)cnc(C)c2-c2c(F)cc(F)cc2F)c1 (centres unmarked) [Compound 125],96,99,96,90,99,100,
Cc1nc(C#N)c(C)c(-c2ccc(Cl)cc2)c1-c1c(F)cccc1F [Compound 143],99,97,100,0,97,28,
"COc1cc(OC)cc(-c2c(C(C)=NO)cnc(C)c2-c2c(F)cc(F)cc2F)c1 (single isomer, unassigned) [Compound 114]",89,99,99,69,94,99,
COc1cc(OC)cc(-c2c(-c3ccc(F)cc3)cnc(C)c2-c2ccccc2F)c1 [Compound 94],,,,,,,"Test A rating (% disease control) [1, 4]: 21%; Test B rating (% disease control) [2, 4]: 54%; Test C rating (% disease control) (Septoria tritici; [4]): 91%; Test D rating (% disease control) (Septoria nodorum; [4]): 0%; Test E rating (% disease control) (Alternaria solani; [4]): 0%; Test F rating (% disease control) (Botrytis cinerea; [4]): 98%"
COc1cc(OC)c(Cl)c(-c2c(CCl)cnc(C)c2-c2c(F)cc(F)cc2F)c1 [Compound 134],99,100,99,92,96,100,
"COc1cc(OC)c(Cl)c(-c2c(-c3ccccc3F)cnc(C)c2-c2c(F)cc(F)cc2F)c1 [Compound 135, 4-(2-chloro-3,5-dimethoxyphenyl)-5-(2-fluorophenyl)-2-methyl-3-(2,4,6-trifluorophenyl)pyridine]",,,,,,,"pest or weed control at 40 ppm ([1]; Blumeria graminis, 192 h, 40 ppm (compound number followed by *)): 98%; pest or weed control at 40 ppm ([2]; 192 h, 40 ppm (compound number followed by *)): 100%; pest or weed control at 40 ppm (Septoria tritici; Zymoseptoria tritici, 504 h, 40 ppm (compound number followed by *)): 99%; pest or weed control at 40 ppm (Septoria nodorum; Parastagonospora nodorum, 216 h, 40 ppm (compound number followed by *)): 96%; pest or weed control at 40 ppm (Alternaria solani; Alternaria solani, 168 h, 40 ppm (compound number followed by *)): 88%; pest or weed control at 40 ppm (Botrytis cinerea; Botrytis cinerea, 120 h, 40 ppm (compound number followed by *)): 100%"
COc1cc(OC)cc(-c2c(C(C)CO)cnc(C)c2-c2c(F)cccc2F)c1 (centres unmarked) [Compound 90],0,74,90,0,98,71,
COc1cc(OC)cc(-c2c(-c3c(F)cc(F)cc3F)cnc(Cl)c2-c2c(F)cc(F)cc2F)c1 [Compound 80],,,,,,,"Test A rating (% disease control) [1, 4]: 95%; Test B rating (% disease control) [2, 4]: 97%; Test C rating (% disease control) (Septoria tritici; [4]): 57%; Test D rating (% disease control) (Septoria nodorum; [4]): 0%; Test E rating (% disease control) (Alternaria solani; [4]): 64%; Test F rating (% disease control) (Botrytis cinerea; [4]): 0%"
COc1cc(OC)cc(-c2c(-c3ccc(F)cc3)cnc(C)c2-c2ccc(F)cc2F)c1 [Compound 95],,,,,,,"Test A rating (% disease control) [1, 4]: 93%; Test B rating (% disease control) [2, 4]: 99%; Test C rating (% disease control) (Septoria tritici; [4]): 96%; Test D rating (% disease control) (Septoria nodorum; [4]): 0%; Test E rating (% disease control) (Alternaria solani; [4]): 73%; Test F rating (% disease control) (Botrytis cinerea; [4]): 87%"
COc1cc(OC)cc(-c2c(COc3ccccc3)cnc(C)c2-c2c(F)cc(F)cc2F)c1 [Compound 109],,,,,,,"Test A rating (% disease control) [1, 4]: 98%; Test B rating (% disease control) [2, 4]: 97%; Test C rating (% disease control) (Septoria tritici; [4]): 97%; Test D rating (% disease control) (Septoria nodorum; [4]): 0%; Test E rating (% disease control) (Alternaria solani; [4]): 0%; Test F rating (% disease control) (Botrytis cinerea; [4]): 92%"
CCC(O)c1cnc(C)c(-c2c(F)ccc(OC)c2F)c1-c1cc(OC)cc(OC)c1 (centres unmarked) [Compound 115],93,96,98,0,99,98,
COc1cc(OC)cc(-c2c(-c3c(F)cccc3F)cnc(Cl)c2-c2c(F)cccc2F)c1 [Compound 76],0,28,0,0,0,0,
COc1cc(OC)cc(-c2c(C=O)cnc(C)c2-c2c(F)cc(F)cc2F)c1 [Compound 112],96,80,93,0,9,96,
COc1cc(OC)c(Cl)c(-c2c(C(C)(C)O)cnc(C)c2-c2c(F)cc(F)cc2F)c1 [Compound 119],99,100,98,98,100,100,
COc1cc(OC)cc(-c2c(C(C)C)cnc(C)c2-c2c(F)ccc(F)c2F)c1 [Compound 78],100,99,92,0,96,,
